What was measured:
Kit (Δ559) = target: T1, Kit (Δ559) (Homo sapiens, UniProt P10721, DEL559-559); test: Kit (Δ559) autophosphorylation and expression in NIH3T3 transfectants; type: cell-based; settings: 72 h
T1 construct: expressed in transfected cells; host or cells: NIH3T3 (mouse fibroblasts)
Method: FIG. 7. Effects of Cpd1 on cell lines expressing constitutively activated forms of Kit. […] Cells were treated with 20 μM Cpd1 and photographed 24 h later under a phase-contrast microscope (original magnification X 100). B): Inhibition of Kit (Δ559) autophosphorylation and expression in NIH3T3 transfectants. Cells were treated with Cpd 1 at the indicated concentrations, for 72 h. Cell lysates were immunoprecipitated with anti-Kit antibody and subjected to Western blotting with anti-p-Tyr or anti-Kit antibodies. C): Inhibition of expression and autocrine loop-activated autophosphorylation of c-Kit in the SCLC cell line N592. Cells were treated with Cpd 1 at the indicated concentrations, for 24 h. Whole cell lysates were subjected to Western blotting with anti-Kit antibody or with an antibody specifically recognizing the tyrosine phosphorylated/activated Kit (p-Kit).
The following human medullary thyroid carcinoma (MTC) cell lines were used in this study. The TT cell line derived from a MEN2A-associated MTC characterized by expression of the RET oncogene carrying the mutation C634W. The MZ-CRC-1 cell line derived from MEN2B-associated MTC characterized by expression of the RET oncogene carrying the mutation M918T. […]
For immunoprecipitation experiments, cells were treated with Cpd1 or solvent for the indicated times. […] Protein concentration was determined by the BCA reagent (Pierce). […]

[1] = system: NIH3T3^MEN2A(C634R) cells; test: Antiproliferative assay (Coulter Counter), NIH3T3 MEN2A(C634R) versus parental NIH3T3; type: cell-based, murine; settings: 72 h, dose-response curves
Method: FIG. 1. Effects of Cpd 1 on NIH3T3^MEN2A(C634R) transfectants expressing exogenous RET/MEN2A(C634R). […] Cells were exposed to 6 μM Cpd1 for 24 h and then photographed under a phase-contrast microscope (original magnification ×100). B) Antiproliferative effect. NIH3T3^MEN2A(C634R) cells and the parental NIH3T3 cells were treated with increasing concentrations of the drug for 72 h and then counted with a Coulter Counter. […] C) Inhibition of Ret/MEN2A(C634R) autophosphorylation and expression. Cells were treated with solvent (−) or 10 μM Cpd1 (+), for the indicated times. Whole cell-lysates were prepared and subjected to SDS-PAGE and Western blotting with anti-pTyr antibody. After stripping, the filter was reblotted with anti-Ret antibody. Arrows indicate the partial and fully glycosilated forms of the Ret/MEN2A receptor.
Cells were trypsinized after 3 days (NIH3T3 and NIH3T3 M12A cells) or 7 days (MTC cells) of treatment with Cpd1 and counted by a Coulter Counter (Coulter Electronics, Luton U.K.). The concentrations able to inhibit cell proliferation by 50% (IC50) were calculated from the dose-response curves. Each experiment was performed in duplicate

Ret/MEN2A(C634W) = target: T2, Ret/MEN2A(C634W) (Homo sapiens, UniProt P07949, C634W); test: Ret autophosphorylation and expression in TT cells (Western blotting); type: cell-based; settings: 24 h
T2 construct: endogenous in cells; host or cells: TT (human medullary thyroid carcinoma)
T2 sequence (P07949 29-1114 C634W): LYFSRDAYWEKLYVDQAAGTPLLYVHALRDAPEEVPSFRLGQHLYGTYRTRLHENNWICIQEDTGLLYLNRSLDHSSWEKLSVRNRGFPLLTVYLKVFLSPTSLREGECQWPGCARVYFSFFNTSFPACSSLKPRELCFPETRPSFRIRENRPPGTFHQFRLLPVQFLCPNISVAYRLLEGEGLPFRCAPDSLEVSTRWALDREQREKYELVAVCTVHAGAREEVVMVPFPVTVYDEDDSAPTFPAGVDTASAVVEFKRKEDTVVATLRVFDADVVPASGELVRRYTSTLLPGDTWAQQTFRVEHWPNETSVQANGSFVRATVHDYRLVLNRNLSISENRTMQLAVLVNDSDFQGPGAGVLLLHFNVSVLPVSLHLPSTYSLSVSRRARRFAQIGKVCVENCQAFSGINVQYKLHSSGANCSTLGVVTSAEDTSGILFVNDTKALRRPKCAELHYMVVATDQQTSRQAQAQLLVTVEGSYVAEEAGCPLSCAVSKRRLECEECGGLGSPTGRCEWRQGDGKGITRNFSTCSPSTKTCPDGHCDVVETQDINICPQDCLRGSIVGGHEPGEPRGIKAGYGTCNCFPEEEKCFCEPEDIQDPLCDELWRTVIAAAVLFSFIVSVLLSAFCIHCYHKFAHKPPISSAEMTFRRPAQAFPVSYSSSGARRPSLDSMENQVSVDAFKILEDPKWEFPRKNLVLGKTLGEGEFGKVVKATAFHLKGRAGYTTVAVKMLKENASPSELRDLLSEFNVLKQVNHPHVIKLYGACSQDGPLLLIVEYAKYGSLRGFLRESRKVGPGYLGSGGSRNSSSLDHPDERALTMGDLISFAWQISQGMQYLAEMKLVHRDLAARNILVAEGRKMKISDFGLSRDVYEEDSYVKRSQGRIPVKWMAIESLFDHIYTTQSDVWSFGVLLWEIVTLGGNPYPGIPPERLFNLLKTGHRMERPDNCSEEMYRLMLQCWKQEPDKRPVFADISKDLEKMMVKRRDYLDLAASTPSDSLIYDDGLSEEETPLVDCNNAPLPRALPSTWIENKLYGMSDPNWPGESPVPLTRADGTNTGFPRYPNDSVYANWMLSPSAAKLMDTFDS
Method: FIG. 2. Effects of Cpd1 on human MTC cell lines harboring MEN2-associated RET mutants. A) Inhibition of Ret autophosphorylation. TT and MZ-CRC-1 cells, expressing respectively RET/MEN2A(C634W) and RET/MEN2B(M918T), were treated with the indicated concentrations of Cpd1, for 24 h. Control cells (C) received the solvent. Whole cell extracts were processed for Western blotting and probed with anti-pTyr and anti-Ret antibodies. […] B) Antiproliferative effect. TT and MZ-CRC-1 cells were treated with increasing concentrations of Cpd 1 for 7 days and then counted with a Coulter Counter.
The following human medullary thyroid carcinoma (MTC) cell lines were used in this study. The TT cell line derived from a MEN2A-associated MTC characterized by expression of the RET oncogene carrying the mutation C634W. […]
For whole-cell extract preparation, cells were lysed in sodium dodecyl sulfate (SDS) sample buffer (62.5 mM Tris-HCl (pH 6.8), 2% SDS) with 1 mM PMSF, 10 μg/ml pepstatin, 12.5 μg/ml leupeptin, 100 KIU aprotinin, 1 mM sodium orthovanadate, 1 mM sodium molybdate. Protein concentration was determined in appropriately diluted aliquots by the bicinchionic acid (BCA) method (Pierce, Rockford, Ill.), then samples were adjusted to a final concentration of 10% glycerol, 5% β-mercaptoethanol, 0.001% bromophenol blue. […]

T1 sequence (P10721 with tags, fused parts or gaps DEL559-559): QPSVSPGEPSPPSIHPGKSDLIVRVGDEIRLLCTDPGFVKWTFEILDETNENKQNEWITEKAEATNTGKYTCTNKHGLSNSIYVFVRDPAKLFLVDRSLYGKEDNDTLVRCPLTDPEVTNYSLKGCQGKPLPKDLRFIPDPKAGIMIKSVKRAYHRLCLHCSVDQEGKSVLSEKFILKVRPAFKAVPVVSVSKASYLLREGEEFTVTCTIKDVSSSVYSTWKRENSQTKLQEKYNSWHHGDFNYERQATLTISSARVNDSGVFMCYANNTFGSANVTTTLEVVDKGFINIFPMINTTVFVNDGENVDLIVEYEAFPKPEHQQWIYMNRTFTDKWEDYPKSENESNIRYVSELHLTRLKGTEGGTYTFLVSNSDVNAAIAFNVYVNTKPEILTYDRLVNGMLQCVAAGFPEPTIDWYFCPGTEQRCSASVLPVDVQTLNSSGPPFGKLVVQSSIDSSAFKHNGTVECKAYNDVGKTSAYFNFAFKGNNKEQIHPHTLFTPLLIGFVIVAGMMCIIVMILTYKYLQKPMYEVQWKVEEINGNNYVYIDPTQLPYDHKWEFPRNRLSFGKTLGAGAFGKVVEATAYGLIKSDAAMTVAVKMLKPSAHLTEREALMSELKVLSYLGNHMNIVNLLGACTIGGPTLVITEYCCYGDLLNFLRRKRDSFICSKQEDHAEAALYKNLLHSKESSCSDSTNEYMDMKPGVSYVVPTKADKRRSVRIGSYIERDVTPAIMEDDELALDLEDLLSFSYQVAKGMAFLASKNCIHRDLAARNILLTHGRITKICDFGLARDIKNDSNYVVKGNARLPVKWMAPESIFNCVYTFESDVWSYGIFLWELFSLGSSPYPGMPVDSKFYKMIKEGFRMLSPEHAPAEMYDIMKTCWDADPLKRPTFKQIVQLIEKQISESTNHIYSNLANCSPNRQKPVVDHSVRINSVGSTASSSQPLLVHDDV

COc1cc2c(cc1OC)/C(=C\c1ccc(O)cc1)C(=O)N2 [Cpd 1, (E)-1,3-dihydro-5,6-dimethoxy-3-[(4-hydroxyphenyl)methylene]-2H-indol-2-one]
Kit (Δ559) expression (Kit (Δ559)): dose-dependent drug-induced inhibition
Kit (Δ559) tyrosine phosphorylation (Kit (Δ559)): dose-dependent drug-induced inhibition
Antiproliferative effect, sensitivity relative to parental NIH3T3 cells [1]: higher sensitivity
Tyrosine phosphorylation of Ret receptor (Ret/MEN2A(C634W)): dose-dependent inhibition
Ret receptor expression (Ret/MEN2A(C634W); highest concentrations): reduced expression
